# Patent publication US20080261976A1, “NOVEL PIPERIDINECARBOXAMIDE DERIVATIVES, METHOD FOR PREPARING SAME AND PHARMACEUTICAL COMPOSITIONS CONTAINING SAME” (SANOFI-AVENTIS, priority 2001, published 2008)
# Where a name gives a salt, the structure may show the parent alone. Read-outs that look alike come from different tables or passages of the source.
# Assays:
# [1] = target: T1, cloned human NK3 receptors (Homo sapiens, UniProt P29371); experiment: Binding of [125I]His[MePhe7]NKB to cloned human NK3 receptors expressed by CHO cells; settings: read-out: inhibition constant Ki, binding of [125I]His[MePhe7]NKB to cloned human NK3 receptors
# T1 construct: expressed in transfected cells; host or cells: CHO cells
# T1 sequence (P29371 1-465): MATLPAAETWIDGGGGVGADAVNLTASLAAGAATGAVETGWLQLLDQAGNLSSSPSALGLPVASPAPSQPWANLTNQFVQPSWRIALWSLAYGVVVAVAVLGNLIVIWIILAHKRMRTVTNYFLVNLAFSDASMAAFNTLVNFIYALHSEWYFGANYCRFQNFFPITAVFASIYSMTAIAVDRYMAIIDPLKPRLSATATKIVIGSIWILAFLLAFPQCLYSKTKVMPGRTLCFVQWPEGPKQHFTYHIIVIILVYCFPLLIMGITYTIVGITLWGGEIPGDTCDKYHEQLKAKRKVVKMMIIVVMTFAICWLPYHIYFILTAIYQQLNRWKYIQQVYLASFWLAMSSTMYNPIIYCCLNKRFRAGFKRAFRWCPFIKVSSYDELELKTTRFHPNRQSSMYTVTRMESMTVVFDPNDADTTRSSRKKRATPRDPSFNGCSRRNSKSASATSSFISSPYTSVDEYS
# Description: The affinity of the compounds for tachykinin receptors was evaluated in vitro by several biochemical tests using radioligands: 3) The binding of [^125I]His[[…]]NKB to the cloned human NK3 receptors expressed by CHO cells (Buell et al., FEBS Letters, 1992, 299, 90-95). The tests were carried out according to X. Emonds-Alt et al. (Eur. J. Pharmacol., 1993, 250, 403-413; Life Sci., 1995, 56, PL 27-32).
# [2] = target: T2, cloned human NK2 receptors (Homo sapiens, UniProt P21452); experiment: Binding of [125I]His-NKA to cloned human NK2 receptors expressed by CHO cells; settings: read-out: inhibition constant Ki, binding of [125I]His-NKA to cloned human NK2 receptors
# T2 construct: expressed in transfected cells; host or cells: CHO cells
# T2 sequence (P21452 1-398): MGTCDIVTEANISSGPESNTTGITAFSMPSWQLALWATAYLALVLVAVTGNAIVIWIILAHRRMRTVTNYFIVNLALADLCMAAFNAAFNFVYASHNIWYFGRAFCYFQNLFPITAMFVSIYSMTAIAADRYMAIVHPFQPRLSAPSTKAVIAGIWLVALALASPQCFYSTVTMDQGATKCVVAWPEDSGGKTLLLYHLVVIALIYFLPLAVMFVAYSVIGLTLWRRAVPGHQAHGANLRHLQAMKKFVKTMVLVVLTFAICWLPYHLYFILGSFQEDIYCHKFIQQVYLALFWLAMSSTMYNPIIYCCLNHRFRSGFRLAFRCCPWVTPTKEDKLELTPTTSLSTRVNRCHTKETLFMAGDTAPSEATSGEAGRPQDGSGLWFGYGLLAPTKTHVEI
# Description: The affinity of the compounds for tachykinin receptors was evaluated in vitro by several biochemical tests using radioligands: 2) The binding of [^125I]|His-NKA to the cloned human NK2 receptors expressed by CHO cells (Y. Takeda et al., J. Neurochem., 1992, 59, 740-745). The tests were carried out according to X. Emonds-Alt et al. (Eur. J. Pharmacol., 1993, 250, 403-413; Life Sci., 1995, 56, PL 27-32). […] The inhibition constant Ki is less than or equal to 5×10^−10M.
# NK2 receptors [3] = target: T3, NK2 receptors (Rattus norvegicus, UniProt P16610); settings: rats, literature reference; cited from earlier work
# T3 construct: from tissue; host or cells: rat brain (septum/hippocampus; prefrontal cortex), living animal
# T3 sequence (P16610 1-390): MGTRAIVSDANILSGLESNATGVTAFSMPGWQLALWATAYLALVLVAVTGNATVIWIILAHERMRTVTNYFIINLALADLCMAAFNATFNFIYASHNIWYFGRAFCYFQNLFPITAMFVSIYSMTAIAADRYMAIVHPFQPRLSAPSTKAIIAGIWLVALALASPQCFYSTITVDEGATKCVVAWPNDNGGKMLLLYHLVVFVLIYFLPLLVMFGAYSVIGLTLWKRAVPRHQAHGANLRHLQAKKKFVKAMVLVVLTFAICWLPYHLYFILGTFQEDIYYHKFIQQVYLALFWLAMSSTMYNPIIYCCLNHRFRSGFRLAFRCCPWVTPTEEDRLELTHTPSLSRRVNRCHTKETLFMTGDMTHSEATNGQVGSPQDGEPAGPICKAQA
# NK3 receptors [4] = target: T4, NK3 receptors (Cavia porcellus, UniProt P30098); experiment: Haloperidol-induced increase in number of spontaneously active dopaminergic neurons in A10 region of guinea pigs; format: in vivo, guinea pig; settings: haloperidol 1 mg/kg i.p., compound 0.1-1 mg/kg by the intraperitoneal route
# T4 construct: from tissue; host or cells: guinea pig brain (septum/hippocampus; A10/VTA), living animal
# T4 sequence (P30098 1-440): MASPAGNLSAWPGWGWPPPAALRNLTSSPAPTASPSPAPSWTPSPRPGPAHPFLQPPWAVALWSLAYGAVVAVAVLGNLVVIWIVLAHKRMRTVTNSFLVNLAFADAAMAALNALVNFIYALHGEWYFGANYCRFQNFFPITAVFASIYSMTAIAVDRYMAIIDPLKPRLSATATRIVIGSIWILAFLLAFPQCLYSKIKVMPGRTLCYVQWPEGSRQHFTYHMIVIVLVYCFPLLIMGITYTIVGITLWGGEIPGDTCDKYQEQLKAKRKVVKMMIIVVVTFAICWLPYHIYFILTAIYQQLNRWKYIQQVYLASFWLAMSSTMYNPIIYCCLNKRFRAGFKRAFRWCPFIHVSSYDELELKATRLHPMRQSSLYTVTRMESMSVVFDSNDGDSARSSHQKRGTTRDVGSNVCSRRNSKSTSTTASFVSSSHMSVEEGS
# Text: This increase is mediated by the activation of the NK3 receptors by endogenous neurokinin B (C. Gueudet et al., Synapse, 1999, 33, 71-79).
# NK3 receptor = experiment: Rotating behaviour induced by intrastriatal senktide in gerbils; format: in vivo, gerbil
# Description: This test was carried out according to X. Emonds-Alt et al., Life Sci., 1995, 56, PL27-PL32.
# NK3 receptors [5] = target: T4, NK3 receptors; experiment: Increase in hippocampal acetylcholine release caused by NK3 agonist applied in the septum of guinea pigs; format: in vivo, guinea pig; settings: 0.3-1 mg/kg by the intraperitoneal route
# Text: (§1) In rats, the application of an agonist of the NK2 receptors in the septum causes an increase in the release of acetylcholine in the hippocampus (test carried out according to R. Steinberg et al., Eur. J. Neurosci., 1998, 10, 2337-2345). Likewise in guinea pigs, the local application of an agonist of the NK3 receptors in the septum causes an increase in the release of acetylcholine in the hippocampus (test carried out according to N. Marco et al., Neuropeptides, 1998, 32, 481-488).
# NK2 receptor = experiment: Rotating behaviour induced by intrastriatal [Nle10]NKA(4-10) in gerbils; format: in vivo, gerbil; settings: [Nle10]NKA(4-10) intrastriatal
# Description: In gerbils, a rotating behaviour is induced by intrastriatal administration of a specific agonist of the NK2 receptor, [Nle^10]NKA(4-10); it was observed that a unilateral application of [Nle^10]NKA(4-10) into the gerbil striatum leads to strong contralateral rotations which are inhibited by the compounds according to the invention administered either by the intraperitoneal route, or by the oral route. This test was carried out according to M. Poncelet et al., Neurosci, Lett., 1993, 149, 40-42. In this test, the compounds according to the invention are active at doses ranging from 0.1 mg to 30 mg per kg.
# NK2 receptors [6] = target: T3, NK2 receptors; experiment: Increase in hippocampal acetylcholine release caused by NK2 agonist applied in the septum of rats; format: in vivo; settings: 0.1-0.3 mg/kg by the intraperitoneal route
# Text: as §1
# NK2 receptors [7] = target: T3, NK2 receptors; experiment: Constraint stress-induced increase in tissue level of DOPAC in prefrontal cortex of rats; format: in vivo; settings: 1 mg/kg by the intraperitoneal route
# Text: In rats, constraint stress causes an increase in the tissue level of DOPAC (3,4-dihydroxyphenyl acetic acid) in the prefrontal cortex (test carried out according to B. A. Morrow et al., Eur. J. Pharmacol., 1993, 238, 255-262).
SMILES,Ki [1] [nM],Ki [2] [nM],effect on constraint stress-induced increase in DOPAC tissue level in prefrontal cortex (NK2 receptors [3]),effect on haloperidol-induced increase in number of spontaneously active dopaminergic neurons (A10 region) (NK3 receptors [4]),"ED50, inhibition of contralateral rotations (NK3 receptor; intraperitoneal route) [mg per kg]","ED50, inhibition of contralateral rotations (NK3 receptor; oral route) [mg per kg]",effect on increase in release of acetylcholine in the hippocampus caused by an NK3 agonist (NK3 receptors [5]),"effective dose 50 (ED50), inhibition of contralateral rotations (NK2 receptor; intraperitoneal route) [mg per kg]","effective dose 50 (ED50), inhibition of contralateral rotations (NK2 receptor; oral route) [mg per kg]",effect on increase in release of acetylcholine in the hippocampus caused by an NK2 agonist (NK2 receptors [6]),effect on constraint stress-induced increase in DOPAC tissue level in prefrontal cortex (NK2 receptors [7])
"NC(=O)C1(N2CCCCC2)CCN(CCC2(c3ccc(Cl)c(Cl)c3)CN(C(=O)c3ccccc3)CCO2)CC1 (stereo not drawn) [compound α, 1-[2-[4-benzoyl-2-(3,4-dichlorophenyl)morpholin-2-yl]ethyl]-4-(piperidin-1-yl)piperidine-4-carboxamide, reference compound]",2,0.04,,,,,,,,,
CC(=O)NC1(c2ccccc2)CCN(CC[C@H](CN(C)C(=O)c2ccccc2)c2ccc(Cl)c(Cl)c2)CC1 [saredutant],,,blocked,,,,,,,,
"CN(C)C(=O)C1(N2CCCCC2)CCN(CCC2(c3ccc(Cl)c(Cl)c3)CN(C(=O)c3ccccc3)CCO2)CC1 (single isomer, unassigned) [Example 1, N,N-Dimethyl-1-[2-[4-benzoyl-2-(3,4-dichloro-phenyl)morpholin-2-yl]ethyl]-4-(piperidin-1-yl)-piperidine-4-carboxamide dihydrochloride, dextrorotatory isomer]",0.04,0.04,,blocks,2.8,4.3,blocks,2.9,6.5,blocks,completely blocks
